Nine molecules from ChEMBL document CHEMBL6071139, “Recent discovery of natural substances with cathepsin L-inhibitory activity for cancer metastasis suppression” (Eur J Med Chem, 2024) can be followed below.

As a reminder, the pIC50 is the IC50 on a negative log10 scale, so that one unit is a factor of ten. A low value points to a large IC50. Broadly, the pKi is −log10 of the Ki, conventionally taken in molar units. Low values mean a high Ki, high ones a low Ki. Usually logP stands for the decadic logarithm of the partition coefficient of the neutral form, usually between octanol and water.

Data set [1] has as its target T1, Procathepsin L (Homo sapiens, UniProt P07711). Put plainly: Inhibition of CTSL (unknown origin) using Z-Phe-Arg-AMC as substrate by fluorometric assay.
Data set [2] addresses T1, Procathepsin L. The data set can be described thus: Inhibition of CTSL (unknown origin) using Z-Phe-Arg-AMC as substrate preincubated for 30 mins followed by substrate addition measured after 6 mins by fluorescence based assay.
Data set [3] has as its target T1, Procathepsin L. The data set can be described thus: Inhibition of CTSL (unknown origin).
A short description of data set [4]: Lipophilicity, logP of compound. Conditions: octanol/water.

Each structure is given as a SMILES string. pIC50, pKi: −log10 of the molar value.

T1 sequence (P07711 whole entry): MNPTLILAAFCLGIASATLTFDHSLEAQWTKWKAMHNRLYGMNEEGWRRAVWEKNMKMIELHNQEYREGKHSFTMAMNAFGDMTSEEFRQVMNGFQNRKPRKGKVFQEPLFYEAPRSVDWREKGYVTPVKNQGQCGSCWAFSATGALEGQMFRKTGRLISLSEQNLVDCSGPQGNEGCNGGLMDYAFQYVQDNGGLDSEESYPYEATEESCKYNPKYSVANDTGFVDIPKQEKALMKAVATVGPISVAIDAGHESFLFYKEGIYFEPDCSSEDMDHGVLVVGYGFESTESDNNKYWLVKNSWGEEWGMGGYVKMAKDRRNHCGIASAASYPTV

With `O=C(O)/C=C/c1ccc(O)cc1O`, at Procathepsin L [1], the pIC50 was 3.03.

`Cc1ccc(S(=O)(=O)N[C@@H](Cc2ccccc2)C(=O)OC[C@H](Cc2ccccc2)NC(=O)c2ccccc2)cc1` showed a pIC50 against Procathepsin L [2] of 4.52.

On to `CCOC(=O)/C=C/C(=O)[C@H](CC(C)C)NC(=O)[C@H](Cc1ccccc1)NC(=O)OCc1ccccc1`, for which the negative-log Ki (pKi) at Procathepsin L [3] was 7.92.

For `O=C(N[C@H](COC(=O)[C@H](Cc1ccccc1)NS(=O)(=O)c1cccc(Br)c1)Cc1ccccc1)c1ccccc1`, the pIC50 at Procathepsin L [3] was 5.24.

`Cc1ccc(S(=O)(=O)/C=C/C(=O)[C@H](CC(C)C)NC(=O)[C@H](CC(C)C)NC(=O)OCc2ccccc2)cc1` showed a pKi at Procathepsin L [3] of 8.07.

Turning to `C[C@@H](/C=C/[N+](=O)[O-])NC(=O)[C@H](Cc1c[nH]c2ccccc12)NC(=O)OCc1ccccc1`, the logP in data set [4] is 1.61. The same molecule had a negative logarithm of the Ki (pKi) at Procathepsin L [3] of 8.96.

In the case of `O=C(N[C@@H](Cc1ccccc1)C(=O)OC[C@H](Cc1ccccc1)NS(=O)(=O)c1ccc(Br)cc1)c1ccccc1`, on Procathepsin L [3], the pIC50 is 5.22.

With `C[C@@H](/C=C/[N+](=O)[O-])NC(=O)[C@H](Cc1ccc([N+](=O)[O-])cc1)NC(=O)OCc1ccccc1`, the logP in data set [4] was found to be 1.85. Besides, the pKi on Procathepsin L [3] is 8.41.

For the molecule `O=C(N[C@H](COC(=O)[C@H](Cc1ccccc1)NC(=O)c1ccccc1)Cc1ccccc1)c1ccccc1` [ASPERPHENAMATE], the pIC50 against Procathepsin L [3] is 4.04.
